Source: patent US20100267561A1, “HERBICIDAL PYRIDAZINONE DERIVATIVES” (priority 2007, published 2010)

Key:
Type in all cases: in vivo
[1] = system: ducksalad (Heteranthera limosa); assay: Test B flooded paddy test plant response
Outline: (§1)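 Rice, umbrella sedge, ducksalad and barnyardgrass at 2-leaf stage; pots flooded to 3 cm, compounds applied into paddy water, depth held throughout. Greenhouse 13 to 15 days, then visual rating vs untreated controls on 0–100 scale (0 no effect, 100 complete control); dash means no test result.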

[2] = system: rice (Oryza sativa); assay: Test B flooded paddy test plant response
Outline: as §1

[3] = system: barnyardgrass (Echinochloa crus-galli); assay: Test B flooded paddy test plant response
Outline: as §1

[4] = system: umbrella sedge (Cyperus difformis); assay: Test B flooded paddy test plant response
Outline: as §1

[5] = system: giant foxtail (Setaria faberii); assay: Test B pre-/postemergence plant response
Outline: (§2)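 Seeds were sown and sprayed preemergence, while plants at 2 to 18 cm (1- to 4-leaf stage) got postemergence sprays. Compounds were formulated in a non-phytotoxic solvent mixture with surfactant. After 13 to 15 days in a greenhouse, injury was rated visually against untreated controls, 0 (no effect) to 100 (complete control).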

[6] = system: common (oilseed) sunflower (Helianthus annuus); assay: Test B pre-/postemergence plant response; settings: Preemergence
Outline: as §2

[7] = system: morningglory (Ipomoea coccinea); assay: Test B pre-/postemergence plant response
Outline: as §2

[8] = system: soybean (Glycine max); assay: Test B pre-/postemergence plant response
Outline: as §2

[9] = system: eastern black (E.B.) nightshade (Solanum ptycanthum); assay: Test B pre-/postemergence plant response; settings: Preemergence
Outline: as §2

[10] = system: wheat (Triticum aestivum); assay: Test B pre-/postemergence plant response
Outline: as §2

[11] = system: surinam grass (Brachiaria decumbens); assay: Test B pre-/postemergence plant response
Outline: as §2

[12] = system: goosegrass (Eleusine indica); assay: Test B pre-/postemergence plant response
Outline: as §2

[13] = system: Russian thistle (Salsola iberica); assay: Test B pre-/postemergence plant response; settings: Preemergence
Outline: as §2

[14] = system: downy bromegrass (Bromus tectorum); assay: Test B pre-/postemergence plant response
Outline: as §2

[15] = Flood (flooded paddy test), 62 g ai/ha, scale 0 to 100, 0 no effect, 100 complete control
[16] = Flood (flooded paddy test), 125 g ai/ha, scale 0 to 100, 0 no effect, 100 complete control
[17] = Flood (flooded paddy test), 250 g ai/ha, scale 0 to 100, 0 no effect, 100 complete control
[18] = Flood, 31 g ai/ha, scale 0 to 100
[19] = Postemergence, 31 g ai/ha, scale 0 to 100, 0 no effect, 100 complete control
[20] = Postemergence, 62 g ai/ha, scale 0 to 100
[21] = Postemergence, 125 g ai/ha, scale 0 to 100
[22] = Postemergence, 250 g ai/ha, scale 0 to 100
[23] = Preemergence, 31 g ai/ha, 0 to 100 scale, 0 no effect, 100 complete control
[24] = Preemergence, 62 g ai/ha, scale 0 to 100
[25] = Preemergence, 125 g ai/ha, scale 0 to 100
[26] = Preemergence, 250 g ai/ha, scale 0 to 100
[27] = 31 g ai/ha, 0 to 100 scale, 0 no effect, 100 complete control

CCc1cc(-c2ccc(C(F)(F)F)cc2)nn1-c1c(O)c(C)nn(C)c1=O [Compound 16]
Plant response rating, Ducksalad [1, 15]: 0 | Plant response rating, Ducksalad [1, 16]: 0 | Plant response rating, Ducksalad [1, 17]: 0 | Plant response rating, Ducksalad [1, 18]: 0 | Plant response rating, Rice [2, 15]: 20 | Plant response rating, Rice [2, 16]: 45 | Plant response rating, Rice [2, 17]: 80 | Plant response rating, Rice [2, 18]: 0 | Plant response rating, Barnyardgrass [3, 15]: 20 | Plant response rating, Barnyardgrass [3, 16]: 40 | Plant response rating, Barnyardgrass [3, 17]: 60 | Plant response rating, Barnyardgrass [3, 18]: 15 | Plant response rating, Sedge, Umbrella [4, 15]: 30 | Plant response rating, Sedge, Umbrella [4, 16]: 30 | Plant response rating, Sedge, Umbrella [4, 17]: 45 | Plant response rating, Sedge, Umbrella [4, 18]: 0 | Plant response rating, Foxtail, Giant [5, 19]: 85 | Plant response rating, Foxtail, Giant [5, 20]: 98 | Plant response rating, Foxtail, Giant [5, 21]: 100 | Plant response rating, Foxtail, Giant [5, 22]: 100 | Plant response rating, Foxtail, Giant [5, 23]: 0 | Plant response rating, Foxtail, Giant [5, 24]: 0 | Plant response rating, Foxtail, Giant [5, 25]: 40 | Plant response rating, Foxtail, Giant [5, 26]: 70 | Plant response rating, Sunflower [6, 27]: 0 | Plant response rating, Sunflower ([6]; 62 g ai/ha, scale 0 to 100): 0 | Plant response rating, Sunflower ([6]; 125 g ai/ha, scale 0 to 100): 0 | Plant response rating, Sunflower ([6]; 250 g ai/ha, scale 0 to 100): 0 | Plant response rating, Morningglory [7, 19]: 0 | Plant response rating, Morningglory [7, 20]: 0 | Plant response rating, Morningglory [7, 21]: 0 | Plant response rating, Morningglory [7, 22]: 0 | Plant response rating, Morningglory [7, 23]: 0 | Plant response rating, Morningglory [7, 24]: 0 | Plant response rating, Morningglory [7, 25]: 0 | Plant response rating, Morningglory [7, 26]: 0 | Plant response rating, Soybean [8, 19]: 0 | Plant response rating, Soybean [8, 20]: 0 | Plant response rating, Soybean [8, 21]: 0 | Plant response rating, Soybean [8, 22]: 0 | Plant response rating, Soybean [8, 26]: 0 | Plant response rating, Nightshade, E. B. [9, 27]: 0 | Plant response rating, Nightshade, E. B. ([9]; 62 g ai/ha, scale 0 to 100): 0 | Plant response rating, Nightshade, E. B. ([9]; 125 g ai/ha, scale 0 to 100): 0 | Plant response rating, Nightshade, E. B. ([9]; 250 g ai/ha, scale 0 to 100): 0 | Plant response rating, Wheat [10, 19]: 95 | Plant response rating, Wheat [10, 20]: 98 | Plant response rating, Wheat [10, 21]: 100 | Plant response rating, Wheat [10, 22]: 100 | Plant response rating, Wheat [10, 23]: 15 | Plant response rating, Wheat [10, 24]: 90 | Plant response rating, Wheat [10, 25]: 98 | Plant response rating, Wheat [10, 26]: 100 | Plant response rating, Surinam Grass [11, 19]: 90 | Plant response rating, Surinam Grass [11, 20]: 100 | Plant response rating, Surinam Grass [11, 21]: 100 | Plant response rating, Surinam Grass [11, 22]: 100 | Plant response rating, Surinam Grass [11, 23]: 45 | Plant response rating, Surinam Grass [11, 24]: 55 | Plant response rating, Surinam Grass [11, 25]: 95 | Plant response rating, Surinam Grass [11, 26]: 100 | Plant response rating, Goosegrass [12, 19]: 60 | Plant response rating, Goosegrass [12, 20]: 65 | Plant response rating, Goosegrass [12, 21]: 75 | Plant response rating, Goosegrass [12, 22]: 80 | Plant response rating, Goosegrass [12, 23]: 0 | Plant response rating, Goosegrass [12, 24]: 0 | Plant response rating, Goosegrass [12, 25]: 50 | Plant response rating, Goosegrass [12, 26]: 60 | Plant response rating, Russian Thistle [13, 27]: 0 | Plant response rating, Russian Thistle ([13]; 62 g ai/ha, scale 0 to 100): 0 | Plant response rating, Russian Thistle ([13]; 125 g ai/ha, scale 0 to 100): 0 | Plant response rating, Russian Thistle ([13]; 250 g ai/ha, scale 0 to 100): 0 | Plant response rating, Bromegrass, Downy [14, 19]: 60 | Plant response rating, Bromegrass, Downy [14, 20]: 70 | Plant response rating, Bromegrass, Downy [14, 21]: 90 | Plant response rating, Bromegrass, Downy [14, 22]: 100 | Plant response rating, Bromegrass, Downy [14, 23]: 90 | Plant response rating, Bromegrass, Downy [14, 24]: 100 | Plant response rating, Bromegrass, Downy [14, 25]: 100 | Plant response rating, Bromegrass, Downy ([14]; Preemergence, 250 g ai/ha, scale 0 to 100 (0 no effect, 100 complete control)): 100
